Source: ChEMBL document CHEMBL1134703, “Simplified catechin-gallate inhibitors of HIV-1 reverse transcriptase” (Bioorg Med Chem Lett, 2001)

Each molecule was assayed against Human immunodeficiency virus type 1 reverse transcriptase (Human immunodeficiency virus 1, UniProt Q72547) (assay: Inhibition of polymerization in wild type HIV-1 RT with poly rC/dG12-18 template primer and [3H]dGTP).

| Compound | IC50 |
| --- | --- |
| O=C(OC1COc2cc(O)cc(O)c2C1)c1ccc(O)cc1O (stereo not drawn) | 96.3 µM |
| Oc1cc(O)c2c(c1)O[C@H](c1ccc(O)c(O)c1)[C@H](O)C2 [(-)-EPICATECHIN] | > 100 µM |
| O=C(OC1COc2cc(O)cc(O)c2C1)c1cccc(O)c1 (stereo not drawn) | > 100 µM |
| O=C(O[C@@H]1Cc2c(O)cc(O)cc2O[C@@H]1c1cc(O)c(O)c(O)c1)c1cc(O)c(O)c(O)c1 [EPIGALOCATECHIN GALLATE] | 0.73 µM |
| O=C(O)c1cc(O)c(O)c(O)c1 [GALLIC ACID] | > 100 µM |
| O=C(OC1COc2ccccc2C1)c1ccc(O)c(O)c1O (stereo not drawn) | > 100 µM |
| O=C(OC1COc2cc(O)cc(O)c2C1)c1ccccc1 (stereo not drawn) | > 100 µM |

Continued by falling IC50, values first:

| IC50 | Compound |
| --- | --- |
| 45.5 µM | O=C(OC1COc2cccc(O)c2C1)c1ccc(O)c(O)c1O (stereo not drawn) |
| 37.2 µM | O=C(OC1COc2cc(O)cc(O)c2C1)c1cccc(O)c1O (stereo not drawn) |
| 36.3 µM | O=C(OC1COc2cc(O)ccc2C1)c1ccc(O)c(O)c1O (stereo not drawn) |
| 10.7 µM | O=C(OCCC1COc2cc(O)c(O)cc2C1)c1ccc(O)c(O)c1O (stereo not drawn) |
| 3.83 µM | O=C(OC1COc2cc(O)cc(O)c2C1)c1ccc(O)c(O)c1O (stereo not drawn) |
| 0.76 µM | O=C(O[C@@H]1Cc2c(O)cc(O)cc2O[C@@H]1c1ccc(O)c(O)c1)c1cc(O)c(O)c(O)c1 [EPICATECHIN GALLATE] |
